In publication PMC10650832, “Natural Phosphodiesterase-4 Inhibitors with Potential Anti-Inflammatory Activities from Millettia dielsiana” (Molecules, 2023):
Blank lines part the entries; values can stand above or below the compound they belong to.

Assays:
[1] = test system: NO production in RAW264.7 cells induced by LPS; design: method as in PMID 31470215; conditions: read-out: IC50 of inhibition of NO production; cited from earlier work
NO production = test system: NO production; design: method as in PMID 22902267; conditions: read-out: IC50 of inhibition of NO production; cited from earlier work
Recombinant PDE4B = molecular target: T1, Recombinant PDE4B (Homo sapiens, UniProt Q07343); assay: In vitro PDE4B enzymatic assay (cAMP dynamic 2 kit); type: biochemical; conditions: average of three determinations ± SEM
T1 construct: purchased Sigma Aldrich Co Ltd
T1 sequence (Q07343 whole entry, species assumed): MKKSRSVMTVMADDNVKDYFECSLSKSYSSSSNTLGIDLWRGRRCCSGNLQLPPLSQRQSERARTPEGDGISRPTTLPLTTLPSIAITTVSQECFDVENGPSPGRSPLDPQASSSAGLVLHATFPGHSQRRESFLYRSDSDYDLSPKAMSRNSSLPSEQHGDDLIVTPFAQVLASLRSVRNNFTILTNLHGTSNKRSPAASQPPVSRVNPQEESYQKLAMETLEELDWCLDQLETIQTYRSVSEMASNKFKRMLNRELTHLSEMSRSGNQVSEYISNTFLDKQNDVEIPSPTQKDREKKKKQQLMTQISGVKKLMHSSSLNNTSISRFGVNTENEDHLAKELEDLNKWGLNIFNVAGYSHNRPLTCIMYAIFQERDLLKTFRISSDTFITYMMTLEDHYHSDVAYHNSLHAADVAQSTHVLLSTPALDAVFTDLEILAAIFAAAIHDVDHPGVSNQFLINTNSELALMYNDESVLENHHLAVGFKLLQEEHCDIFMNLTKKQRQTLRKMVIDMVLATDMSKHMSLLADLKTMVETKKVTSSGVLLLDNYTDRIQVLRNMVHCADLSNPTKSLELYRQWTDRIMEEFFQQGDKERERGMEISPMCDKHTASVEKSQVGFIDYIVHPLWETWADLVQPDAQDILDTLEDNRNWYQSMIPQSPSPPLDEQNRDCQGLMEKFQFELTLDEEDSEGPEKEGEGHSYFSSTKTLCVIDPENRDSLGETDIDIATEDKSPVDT
Description: (§1) Recombinant PDE4B/D was from Sigma Aldrich Co Ltd. A PDE4B/D inhibitors assay was performed using a cAMP dynamic 2 kit. Serial dilutions of isolated compounds with DMSO (100-fold of final concentration) were prepared. Compound solutions were diluted 20-fold with cAMP assay buffer (50 mM Tris, 6 mM MgCl2, pH 7.5). Enzyme solution ([…] of 30 ng/mL or cAMP assay buffer for the control) and […] of isolated compounds (5-fold concentration of final concentration) were added to each well of the 96-well micro assay plate and pre-incubated at room temperature for 10 min. The enzymatic reactions were started by adding […] of cAMP solution (150 nM in cAMP assay buffer) or cAMP assay buffer and incubated at 37 °C for 30 min. The enzymatic reaction was terminated by placing the assay plate on ice. The concentration of cAMP was quantified by measurement of fluorescence intensity using Spectrophotometer Model-SP-2558 (Acton Research, Acton, MA, USA).

Recombinant PDE4D = molecular target: T2, Recombinant PDE4D (Homo sapiens, UniProt Q08499); assay: In vitro PDE4D enzymatic assay (cAMP dynamic 2 kit); type: biochemical; conditions: average of three determinations ± SEM
T2 construct: purchased Sigma Aldrich Co Ltd
T2 sequence (Q08499 whole entry, species assumed): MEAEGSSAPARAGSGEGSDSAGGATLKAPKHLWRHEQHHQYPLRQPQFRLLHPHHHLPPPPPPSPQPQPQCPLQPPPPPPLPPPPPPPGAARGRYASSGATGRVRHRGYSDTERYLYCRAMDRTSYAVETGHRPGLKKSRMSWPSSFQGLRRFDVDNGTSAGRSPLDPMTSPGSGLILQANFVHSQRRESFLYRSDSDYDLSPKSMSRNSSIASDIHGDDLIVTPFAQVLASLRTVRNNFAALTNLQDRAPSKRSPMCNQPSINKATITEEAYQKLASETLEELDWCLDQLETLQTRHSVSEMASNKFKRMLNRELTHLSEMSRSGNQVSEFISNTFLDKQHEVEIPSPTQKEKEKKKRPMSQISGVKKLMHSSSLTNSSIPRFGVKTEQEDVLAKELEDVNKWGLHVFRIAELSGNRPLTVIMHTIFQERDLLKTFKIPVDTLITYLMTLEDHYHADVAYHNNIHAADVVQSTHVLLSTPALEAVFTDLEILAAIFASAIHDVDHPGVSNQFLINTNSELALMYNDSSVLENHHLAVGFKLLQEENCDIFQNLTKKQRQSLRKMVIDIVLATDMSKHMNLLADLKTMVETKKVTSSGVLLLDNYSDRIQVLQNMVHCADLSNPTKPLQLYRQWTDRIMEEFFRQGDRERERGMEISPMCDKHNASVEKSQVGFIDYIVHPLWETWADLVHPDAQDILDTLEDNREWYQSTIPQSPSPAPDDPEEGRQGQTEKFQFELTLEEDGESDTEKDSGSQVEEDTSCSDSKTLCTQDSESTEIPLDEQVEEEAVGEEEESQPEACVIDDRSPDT
Description: as §1

[2] = test system: NO production on RAW264.7 macrophages; assay: Inhibition of NO production in LPS-stimulated RAW264.7 cells (Griess); type: cell-based, murine; conditions: highest concentration 50 µM
Description: Cell RAW264.7 (ATCC, Manassas, VA, USA) was cultured for 48 h in DMEM (Dulbecco's Modified Eagle Medium) medium at 37 °C, 5% CO2, and 10% for fetal bovine serum (FBS). Then, the cell fluid was transferred to 96 wells with a density of 2.5 × 10^5 cells/well. Cells were stimulated with 2 μL lipopolysaccharide (LPS 0.1 mg/mL) for 24 h and supplemented with different concentrations of drugs/reagents. Cardamonin is used as a control (+) and DMSO as a control (-). The suspension of the cell was incubated with Griess reagent, NaNO2 at different concentrations to build the calibration curve. Measure the reaction response at λ = 570 nm. The inhibition rate of NO (%) production is determined by the formula: %UC = ([XTB]sample - [[…]) × 100 In which [XTB] is the average NO concentration calculated based on the standard NaNO2. […] Formazan crystalline metabolites are dissolved in dimethyl sulfoxide (DMSO, Sigma-Aldrich, Saint Louis, MO, USA) and measured optical density at λ = 540/720 nm on Infinite F50 device (Tecan, Männedorf, Switzerland).

Compound: O=C(/C=C/c1ccc(O)cc1)c1ccc(O)cc1O [D4, Isoliquiritigenin]
IC50 [1]: 31.2 µM

Compound: Oc1ccc([C@H]2CCc3ccc(O)cc3O2)cc1 [D10, Tupichinol C]
IC50 [1]: 38.4 µM

Compound: COc1cc(OC)c(-c2coc3c4c(c(OC)cc3c2=O)OC(C)(C)C=C4)cc1OC [D30, Millesianin C]
IC50 (NO production): 1.37 µM

IC50 (Recombinant PDE4B; read-out: IC50 of inhibition of PDE4B): 6.56 ± 0.7 µM | IC50 (Recombinant PDE4D; read-out: IC50 of inhibition of PDE4D): 11.7 ± 1.3 µM | IC50 [2]: 5.4 ± 0.9 µM
Compound: 5,7,4′-trihydroxyisoflavone 7-O-β-D-apiofuranosyl-(1→6)-β-D-glucopyranoside [D50]

IC50 of inhibition of PDE4B (Recombinant PDE4B): did not show activity | IC50 of inhibition of PDE4D (Recombinant PDE4D): did not show activity
Compound: C[C@H]1[C@H](C)CC[C@]2(C(=O)O)CC[C@]3(C)C(=CC[C@@H]4[C@@]5(C)CC[C@H](OC(=O)/C=C/c6ccc(O)cc6)C(C)(C)[C@@H]5CC[C@]43C)[C@H]12 (relative stereo) [D15, trans-3-O-p-hydroxycinnamoyl ursolic acid]

Compound: COc1ccc([C@H]2COc3cc(O)ccc3C2)c(O)c1 [D9, (3S)-Vestitol]
IC50 [1]: 16 µM
